Source: publication PMC6704710, “Preclinical evaluation of 3D185, a novel potent inhibitor of FGFR1/2/3 and CSF-1R, in FGFR-dependent and macrophage-dominant cancer models” (Journal of Experimental & Clinical Cancer Research : CR, 2019)

Key:
BMDM (CSF-1) = assay: Macrophage survival (CCK-8); format: cell-based, murine; details: 7 days, mean ± SD
Experimental: (§1) Murine bone marrow and human monocytes were stimulated with CSF-1 for 7 days together with the indicated inhibitor, and cell viability was evaluated by the CCK-8 assay. The IC50 values are shown as the mean ± SD (nM) from two independent tests. B-E, To test the impact of 3D185 on the polarization of CSF-1-induced macrophages, murine bone marrow cells and human monocytes were induced to mature into macrophages with CSF-1 for 7 days and then stimulated with CSF-1, IL-4 and IL-13 for an additional 48 h. The expression of the markers MHC-II (b), CD86 (c), and CD206 (d) on induced murine macrophages and CD206 expression on induced human macrophages (e) were determined by flow cytometry, and the mean fluorescence intensity (MFI) was analyzed with FlowJo. Representative data from two independent experiments. f Murine bone marrow cells (left panel) and human monocytes (right panel) were induced to mature into macrophages with CSF-1 for 7 days and then stimulated with CSF-1, IL-4 and IL-13 and treated with vehicle or the indicated inhibitor for an additional 48 h. Then, all cells were collected to count viable cells by staining with trypan blue
(§2) Murine bone marrow-derived macrophages (BMDMs) and PBMCs were used for cell viability studies. BMDMs were harvested by flushing the tibias and femurs of 6- to 8-week-old C57BL/6 mice and depleting red blood cells (RBCs) by RBC lysis (Biogems). For BMDM survival, the cells were cultured for 7 days in RPMI 1640 containing 10% fetal bovine serum (FBS), 100 U/mL penicillin, 100 μg/mL streptomycin and 100 ng/mL mouse CSF-1 (or CSF-2) with or without the tested compounds. PBMCs were obtained from HemaCare and cultured for 7 days in RPMI 1640 containing 10% fetal bovine serum (FBS), 100 U/mL penicillin, 100 μg/mL streptomycin and 100 ng/mL human CSF-1 (or CSF-2) with or without the tested compounds. Cell viability was measured using the CCK-8 assay. For IL-4/IL-13-induced macrophage survival analysis, viable cells were counted by trypan blue exclusion.

PBMC (CSF-2) = assay: Macrophage survival (CCK-8); format: cell-based; details: Homo sapiens, 168 h, 7 days
Experimental: as §2

[1] = tested on: MC38 colorectal adenocarcinoma model; assay: In vivo antitumor activity, MC38 model; parameters: species or system C57BL/6 mice; details: oral once daily 23 days
Experimental: For the MC38 xenograft model, 6-week-old C57BL/6 mice were housed and maintained under specific pathogen-free conditions. Tumor cells (2 × 10^6 in 200 μL) were injected subcutaneously (s.c.) into the right flanks of C57BL/6 mice. […] The tumors were measured twice per week using a microcaliper. Tumor volume (TV) was calculated as follows: TV = (length × width^2)/2. In addition, the individual relative tumor volume (RTV) was calculated as follows: RTV = Vt / V0, where Vt is the volume on a particular day and V0 is the volume at the beginning of the treatment. The RTV is shown on the indicated days as the […] ± SEM for the indicated groups of mice.

PBMC (CSF-1) = assay: Macrophage survival (CCK-8); format: cell-based; details: Homo sapiens, 168 h, 7 days, mean ± SD
Experimental: as §1
Murine bone marrow-derived macrophages (BMDMs) and PBMCs were used for cell viability studies. […] Cell viability was measured using the CCK-8 assay. For IL-4/IL-13-induced macrophage survival analysis, viable cells were counted by trypan blue exclusion.

BMDM (CSF-2) = assay: Macrophage survival (CCK-8); format: cell-based, murine; details: 7 days
Experimental: as §2

[2] = tested on: CSF-1-differentiated macrophages induced RT112 cell migration; assay: Tumor cell migration assay (Transwell co-culture); format: cell-based, human; details: 25 nM, 24 h
M-NFS-60 = assay: Cell proliferation assay; format: cell-based, mouse; details: 72 h, mean ± SD
Experimental: (§3) The cancer cell lines indicated in Figure 3 were seeded in 96-well plates at a low density in growth medium. The next day, appropriate controls or the designated concentrations of the compounds were added to each well, and the cells were incubated for 72 h. HUVECs (passage 3) were seeded in 96-well plates in growth medium overnight and transferred to serum-free medium for 24 h. The following day, appropriate controls or the designated concentrations of the compounds were added to each well, and 100 ng/mL growth factor (bFGF or VEGF) was added to the indicated wells. The cells were incubated for 48 h. Finally, cell proliferation was determined using a sulforhodamine B (SRB) assay or a cell counting kit-8 (CCK-8) assay. […] IC50 values for proliferation curves were calculated using a 4-parameter logistic nonlinear regression model with SoftMax Pro Software (Molecular Devices, San Jose, USA).

SNU16 = assay: Cell proliferation assay; format: cell-based, human; details: 72 h, mean ± SD
Experimental: as §3

KG-1 = assay: Cell proliferation assay; format: cell-based, human; details: 72 h, mean ± SD
Experimental: as §3

HUH7 = assay: Cell proliferation assay; format: cell-based, human; details: 72 h, mean ± SD
Experimental: as §3

NCI-H1581 = assay: Cell proliferation assay; format: cell-based, human; details: 72 h, mean ± SD
Experimental: as §3

UMUC14 = assay: Cell proliferation assay; format: cell-based, human; details: 72 h, mean ± SD
Experimental: as §3

NCI-H716 = assay: Cell proliferation assay; format: cell-based, human; details: 72 h, mean ± SD
Experimental: as §3

OPM2 = assay: Cell proliferation assay; format: cell-based, human; details: 72 h, mean ± SD
Experimental: as §3

RT112 = assay: Cell proliferation assay; format: cell-based, human; details: 72 h, mean ± SD
Experimental: as §3

SUM52PE = assay: Cell proliferation assay; format: cell-based, human; details: 72 h, mean ± SD
Experimental: as §3

KATOIII = assay: Cell proliferation assay; format: cell-based, human; details: 72 h, mean ± SD
Experimental: as §3

| Compound | IC50 (BMDM (CSF-1); Mus musculus, BMDM, 168 h) [nM] | IC50 (PBMC (CSF-2)) [nM] | effect on MC38 tumor growth [1] | IC50 (PBMC (CSF-1)) [nM] | IC50 (BMDM (CSF-2); Mus musculus, BMDM, 168 h) [nM] | effect on macrophage-induced RT112 cell migration [2] | IC50 (M-NFS-60) [nM] | IC50 (BMDM (CSF-1)) [nM] | IC50 (BMDM (CSF-2)) [nM] | IC50 (SNU16) [nM] | IC50 (KG-1) [nM] | IC50 (HUH7) [nM] | IC50 (NCI-H1581) [nM] | IC50 (UMUC14) [nM] | IC50 (NCI-H716) [nM] | IC50 (OPM2) [nM] | IC50 (RT112) [nM] | IC50 (SUM52PE) [nM] | IC50 (KATOIII) [nM] |
| --- | --- | --- | --- | --- | --- | --- | --- | --- | --- | --- | --- | --- | --- | --- | --- | --- | --- | --- | --- |
| FC(F)(F)c1ccc(CNc2ccc(Cc3c[nH]c4ncc(Cl)cc34)cn2)cn1 [PLX3397, reference compound] | 195 ± 48.2 | > 1000 | delayed tumor growth | 220 ± 38.6 | > 1000 | no inhibitory effect |  |  |  |  |  |  |  |  |  |  |  |  |  |
| AZD4547 [reference compound] |  |  |  |  |  |  | 1230 ± 184 | 883 ± 133 | > 1000 | 2.7 ± 0.4 | 3 ± 0.3 | 284 ± 22.5 | 43.8 ± 8.6 | 52.9 ± 4.6 | 7 ± 0.9 | 33 ± 7.6 | 83.3 ± 6.4 | 15.5 ± 2.4 | 15.1 ± 2.9 |
